# Results reported in US5672472A, “Synthetic unrandomization of oligomer fragments” (ISIS Pharmaceuticals, Inc., priority 1994, dated 1997).
# Legend:
# ras 47-mer stem/loop RNA = assay: Gel-shift assay of random 2'-O-methyl oligonucleotide sets binding to ras RNA target; settings: for binding in gel shift (FIG. 2B) / shift of the target: Round 2; for binding in gel shift (FIG. 2B): sets at 1 and 10 μM; for Kd: Table 3, 2'-O-methyl sets, ras RNA about 10 pM, 100 mM NaCl, 10 mM MgCl2, 4 h at 37° C., read-out: KD (set KD)
# HIV tat protein = assay: Binding of oligonucleotide groups to HIV tat protein; settings: Example 27
# protein CD4 = assay: Gel shift of 5' end labeled oligonucleotide groups with CD4; assay type: binding; settings: for binding to the protein CD4: 100 pmoles labeled group, FIG. 7
# target protein = assay: Gel shift assay of anion-exchange subfractions of oligonucleotide sets; assay type: binding; settings: first round; sets subfractionated by charge
# Experimental: An oligonucleotide analog group comprising four sets of oligonucleotides eight positions in length is prepared in accordance with Examples 3 and 6 wherein each of the sets has a different one of adenins, guanine, thymidine and cytosine in the 5th position, and the rest of the positions are randomized to provide the group: NNNNANNN, NNNNGNNN, NNNNTNNN, and NNNNCNNN. Each set is subfractionated by charge with an anion exchange column. Each subfraction is tested for affinity for the target protein by gel shift assay. […] In a further round, the 5th position is fixed to contain an adenins in the 5th position, and each set has a different nucleotide in the fourth position to provide the group NNNAANNN, NNNTANNN, NNNGANNN, and NNNCANNN. The sets are again subfractionated by charge with an anion exchange column and the subfractions are tested for affinity for the target protein by gel shift assay. The steps are repeated until each position is determined.
sequence,measurement,setting,value
NNNNCNANN [NNNNCNXNN X=A],binding in gel shift (FIG. 2B),ras 47-mer stem/loop RNA,minimal binding
same,Kd,ras 47-mer stem/loop RNA,> 10 µM
NNNNANNNN [NNNNXNNNN X=A],shift of ras target (FIG. 2A),"ras 47-mer stem/loop RNA; Round 1, 100 uM",slight shift
same,Kd,ras 47-mer stem/loop RNA,22 µM
NNNNCNNNN [NNNNXNNNN X=C],shift of the target to the bound form,"ras 47-mer stem/loop RNA; Round 1, 50 uM oligonucleotide concentration",more than 50%
same,Kd,ras 47-mer stem/loop RNA,10 µM
NNCNCNCNN [NNXNCNCNN X=C],shift of the target (FIG. 2C),"ras 47-mer stem/loop RNA; Round 3, sets at 0.1 and 1 μM",greater than 50%
same,Kd,ras 47-mer stem/loop RNA,0.5 µM
NNNNCNCNN [NNNNCNXNN X=C],shift of the target,ras 47-mer stem/loop RNA; 1 μM,> 25%
same,shift of the target,ras 47-mer stem/loop RNA; 10 μM,about 50%
same,Kd,ras 47-mer stem/loop RNA,4 µM
NNNNTNNNN,binding against the tat protein,HIV tat protein,Binding has been observed
same,binding to the protein CD4,protein CD4; listed as phosphorothioate oligonucleotide,binding of the oligonucleotide to the protein
same,binding affinity for CD4 (FIG. 7 legend),"protein CD4; 100 pmoles, visible at 0.5 and 1 μG CD4, presence and absence of dIdC",exhibited binding
NNNNGNNNN [NNNNXNNNN X=G],binding in gel shift (FIG. 2A),"ras 47-mer stem/loop RNA; Round 1, sets at 5, 10, 50 and 100 μM",no binding
same,Kd,ras 47-mer stem/loop RNA,> 100 µM
NNNNCNGNN [NNNNCNXNN X=G],binding in gel shift (FIG. 2B),ras 47-mer stem/loop RNA,minimal binding
same,Kd,ras 47-mer stem/loop RNA,> 10 µM
NNNNANNN [Set A],binding affinity of subfraction for the target protein,target protein,highest binding affinity
NNNNTNNNN [2'-O-methyl set],binding to the protein CD4,protein CD4,No binding
